Experimental data reported in the supplement of paper PMC10307832.

What was measured:
Experiment in all cases: relative viability (nuclei count vs DMSO), 5 days (fraction); higher = more cells survive
NCI-H2228 = system: NCI-H2228
Method in brief: (§1)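 A single step with final 0.05% Triton X-100, 1% formaldehyde and 1 ug/ml Hoechst fixed the cells and stained nuclei 5 days after treatment. Lung cancer cell lines in 1536-well plates had been treated by pin tool the day after seeding with one drug alone or a fixed anchor-drug dose plus five library-drug doses (not always all listed) in √10 steps, and nuclei were counted on 4× images. Relative viability is the ratio of nuclei in treated wells to nuclei in vehicle wells, taken as the median of duplicate plates.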

COR-L 105 = system: COR-L 105
Method in brief: as §1

HOP-62 = system: HOP-62
Method in brief: as §1

NCI-H1755 = system: NCI-H1755
Method in brief: as §1

PC-14 = system: PC-14
Method in brief: as §1

NCI-H2170 = system: NCI-H2170
Method in brief: as §1

UMC-11 = system: UMC-11
Method in brief: as §1

EKVX = system: EKVX
Method in brief: as §1

NCI-H1793 = system: NCI-H1793
Method in brief: as §1

NCI-H1734 = system: NCI-H1734
Method in brief: as §1

NCI-H2342 = system: NCI-H2342
Method in brief: as §1

SK-MES-1 = system: SK-MES-1
Method in brief: as §1

NCI-H838 = system: NCI-H838
Method in brief: as §1

NCI-H647 = system: NCI-H647
Method in brief: as §1

NCI-H2347 = system: NCI-H2347
Method in brief: as §1

HCC-15 = system: HCC-15
Method in brief: as §1

NCI-H2009 = system: NCI-H2009
Method in brief: as §1

NCI-H1395 = system: NCI-H1395
Method in brief: as §1

NCI-H1355 = system: NCI-H1355
Method in brief: as §1

COR-L23 = system: COR-L23
Method in brief: as §1

HARA = system: HARA
Method in brief: as §1

NCI-H1993 = system: NCI-H1993
Method in brief: as §1

NCI-H358 = system: NCI-H358
Method in brief: as §1

Oc1nc(-c2ccc(C(F)(F)F)cc2)nc2c1CSCC2 [XAV939] + N=C(N)NC(=N)NCCc1ccccc1 [Phenformin] (partner 250 µM) showed a relative viability (NCI-H2228; first compound 0.08 µM) of 0.3, a relative viability (NCI-H2228; first compound 0.253 µM) of 0.328 and a relative viability (NCI-H2228; first compound 0.8 µM) of 0.296. It also gave a relative viability (NCI-H2228; first compound 2.53 µM) of 0.252, a relative viability (COR-L 105; first compound 0.08 µM) of 0.51 and a relative viability (COR-L 105; first compound 0.253 µM) of 0.492. It also gave a relative viability (COR-L 105; first compound 0.8 µM) of 0.434, a relative viability (COR-L 105; first compound 2.53 µM) of 0.381 and a relative viability (HOP-62; first compound 0.08 µM) of 0.8. The relative viability (HOP-62; first compound 0.253 µM) was 0.623, the relative viability (HOP-62; first compound 0.8 µM) was 0.646 and the relative viability (HOP-62; first compound 2.53 µM) was 0.593. The relative viability (NCI-H1755; first compound 0.08 µM) was 0.621, the relative viability (NCI-H1755; first compound 0.253 µM) was 0.543 and the relative viability (NCI-H1755; first compound 0.8 µM) was 0.614. For the same molecule, the relative viability (NCI-H1755; first compound 2.53 µM) was 0.563, the relative viability (PC-14; first compound 0.08 µM) was 0.69 and the relative viability (PC-14; first compound 0.253 µM) was 0.592. The relative viability (PC-14; first compound 0.8 µM) was 0.629, the relative viability (PC-14; first compound 2.53 µM) was 0.555 and the relative viability (NCI-H2170; first compound 0.08 µM) was 0.393. For the same molecule, the relative viability (NCI-H2170; first compound 0.253 µM) was 0.394, the relative viability (NCI-H2170; first compound 0.8 µM) was 0.413 and the relative viability (NCI-H2170; first compound 2.53 µM) was 0.362. For the same molecule, the relative viability (UMC-11; first compound 0.08 µM) was 0.328, the relative viability (UMC-11; first compound 0.253 µM) was 0.32 and the relative viability (UMC-11; first compound 0.8 µM) was 0.248. The relative viability (UMC-11; first compound 2.53 µM) was 0.201, the relative viability (EKVX; first compound 0.08 µM) was 0.219 and the relative viability (EKVX; first compound 0.253 µM) was 0.225. The relative viability (EKVX; first compound 0.8 µM) was 0.213, the relative viability (EKVX; first compound 2.53 µM) was 0.221 and the relative viability (NCI-H1793; first compound 0.08 µM) was 0.495. For the same molecule, the relative viability (NCI-H1793; first compound 0.253 µM) was 0.389, the relative viability (NCI-H1793; first compound 0.8 µM) was 0.302 and the relative viability (NCI-H1793; first compound 2.53 µM) was 0.354. It also gave a relative viability (NCI-H1734; first compound 0.08 µM) of 0.44, a relative viability (NCI-H1734; first compound 0.253 µM) of 0.386 and a relative viability (NCI-H1734; first compound 0.8 µM) of 0.337. The relative viability (NCI-H1734; first compound 2.53 µM) was 0.393, the relative viability (NCI-H2342; first compound 0.08 µM) was 0.555 and the relative viability (NCI-H2342; first compound 0.253 µM) was 0.518. It also gave a relative viability (NCI-H2342; first compound 0.8 µM) of 0.552, a relative viability (NCI-H2342; first compound 2.53 µM) of 0.451 and a relative viability (SK-MES-1; first compound 0.08 µM) of 0.759. For the same molecule, the relative viability (SK-MES-1; first compound 0.253 µM) was 0.643, the relative viability (SK-MES-1; first compound 0.8 µM) was 0.613 and the relative viability (SK-MES-1; first compound 2.53 µM) was 0.631. The relative viability (NCI-H838; first compound 0.08 µM) was 0.649, the relative viability (NCI-H838; first compound 0.253 µM) was 0.557 and the relative viability (NCI-H838; first compound 0.8 µM) was 0.521. For the same molecule, the relative viability (NCI-H838; first compound 2.53 µM) was 0.395, the relative viability (NCI-H647; first compound 0.08 µM) was 0.553 and the relative viability (NCI-H647; first compound 0.253 µM) was 0.438. It also gave a relative viability (NCI-H647; first compound 0.8 µM) of 0.61, a relative viability (NCI-H647; first compound 2.53 µM) of 0.28 and a relative viability (NCI-H2347; first compound 0.08 µM) of 0.396. The relative viability (NCI-H2347; first compound 2.53 µM) was 0.338, the relative viability (HCC-15; first compound 0.08 µM) was 0.634 and the relative viability (HCC-15; first compound 0.253 µM) was 0.457. For the same molecule, the relative viability (HCC-15; first compound 0.8 µM) was 0.481, the relative viability (HCC-15; first compound 2.53 µM) was 0.481 and the relative viability (NCI-H2009; first compound 0.08 µM) was 0.524. The relative viability (NCI-H2009; first compound 0.253 µM) was 0.484, the relative viability (NCI-H2009; first compound 0.8 µM) was 0.421 and the relative viability (NCI-H2009; first compound 2.53 µM) was 0.441. It also gave a relative viability (NCI-H1395; first compound 0.08 µM) of 0.429, a relative viability (NCI-H1395; first compound 0.253 µM) of 0.443 and a relative viability (NCI-H1395; first compound 0.8 µM) of 0.438. The relative viability (NCI-H1395; first compound 2.53 µM) was 0.462, the relative viability (NCI-H1355; first compound 0.08 µM) was 0.455 and the relative viability (NCI-H1355; first compound 0.253 µM) was 0.428. The relative viability (NCI-H1355; first compound 0.8 µM) was 0.43, the relative viability (NCI-H1355; first compound 2.53 µM) was 0.435 and the relative viability (COR-L23; first compound 0.08 µM) was 0.438. For the same molecule, the relative viability (COR-L23; first compound 0.253 µM) was 0.44, the relative viability (COR-L23; first compound 0.8 µM) was 0.466 and the relative viability (COR-L23; first compound 2.53 µM) was 0.405. The relative viability (HARA; first compound 0.08 µM) was 0.425, the relative viability (HARA; first compound 0.253 µM) was 0.448 and the relative viability (HARA; first compound 0.8 µM) was 0.452. It also gave a relative viability (HARA; first compound 2.53 µM) of 0.432, a relative viability (NCI-H1993; first compound 0.08 µM) of 0.479 and a relative viability (NCI-H1993; first compound 0.253 µM) of 0.526. For the same molecule, the relative viability (NCI-H1993; first compound 0.8 µM) was 0.524, the relative viability (NCI-H1993; first compound 2.53 µM) was 0.511 and the relative viability (NCI-H358; first compound 0.08 µM) was 0.311. The relative viability (NCI-H358; first compound 0.253 µM) was 0.235, the relative viability (NCI-H358; first compound 0.8 µM) was 0.311 and the relative viability (NCI-H358; first compound 2.53 µM) was 0.328.
